Assay results from PubChem BioAssay (NCI).
Values joined by “and” are separate entries in the source; they are usually repeats but may differ in a detail not shown here. Identical values can stand only once.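 Where inhibition never reached the appropriate level, the endpoint shown equals the highest concentration tested. Otherwise, values were interpolated linearly from a five-concentration, 48-hour dose response in 96-well plates. GI50 marks 50% less growth. TGI: total growth inhibition.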

Assays:
Assay in all cases: DTP human tumour cell line panel, 48 h
[1] = system: M14 melanoma
[2] = system: KM20L2 colon
[3] = system: DLD-1 colon
[4] = system: HCT-116 colon
[5] = system: U251 CNS
[6] = system: K-562 leukemia
[7] = system: HCC-2998 colon
[8] = system: MDA-MB-435
[9] = system: T-47D breast
[10] = system: MCF7 breast

`Nc1ccnc(=O)[nH]1` was tested, and the TGI [1] was > 100 µM, the TGI [2] was > 100 µM and the TGI [3] was > 100 µM. The TGI [4] was > 100 µM, the TGI [5] was > 100 µM and the TGI [6] was > 100 µM.
`O=C(O)C(SC(=S)c1ccc(C(=S)SC(C(=O)O)c2ccccc2)cc1)c1ccccc1` (centres undefined) was tested, and the TGI [1] was > 100 µM, the TGI [7] was > 100 µM and the TGI [3] was > 100 µM. The TGI [4] was > 100 µM, the TGI [5] was > 100 µM and the TGI [6] was > 100 µM.
`CCOc1ccc2c(c1)[n+]([O-])c(-c1ccc(Cl)cc1)c(N)[n+]2[O-]` was tested, and the TGI [1] was > 100 µM, the TGI [2] was > 100 µM and the TGI [3] was > 100 µM. For the same molecule, the TGI [4] was > 100 µM, the TGI [5] was > 100 µM and the TGI [6] was > 100 µM.
`Cc1ccc(S(=O)(=O)N/N=C/c2c(O)ccc3ccccc23)cc1` showed a TGI [1] of 64.9 µM, a TGI [7] of 46.1 µM and a TGI [8] of 55.3 µM. For the same molecule, the TGI [9] was > 100 µM, the TGI [4] was 45.6 µM and the TGI [5] was > 100 µM. For the same molecule, the TGI [10] was > 100 µM and the TGI [6] was > 100 µM.
For `Cc1ccc(Nc2n[nH]c(=S)s2)cc1C`, the TGI [1] was > 100 µM, the TGI [7] was > 100 µM and the TGI [8] was > 100 µM. The TGI [9] was > 100 µM, the TGI [4] was > 100 µM and the TGI [5] was > 100 µM. The TGI [10] was > 100 µM and the TGI [6] was > 100 µM.
For `CCN(CC)CCCC(C)Nc1ccnc2cc(Oc3ccccc3)ccc12` (centres undefined), the GI50 [1] was 1.77 µM and 1.79 µM, the TGI [1] was 3.5 µM and 3.35 µM and the GI50 [7] was 2.34 µM and 6.92 µM. For the same molecule, the TGI [7] was 7.94 µM and 36.9 µM, the GI50 [8] was 2.38 µM and the TGI [8] was 6.21 µM and 7.27 µM. For the same molecule, the GI50 [9] was 1.68 µM and 2.39 µM, the TGI [9] was 3.32 µM and 6.19 µM and the GI50 [4] was 2.59 µM and 3.03 µM. For the same molecule, the TGI [4] was 13.1 µM and 21.9 µM, the GI50 [5] was 2.71 µM and 5.51 µM and the TGI [5] was 9.31 µM and 19.8 µM. For the same molecule, the GI50 [10] was 8.46 µM and 6.01 µM, the TGI [10] was 26.5 µM and 19.4 µM and the GI50 [6] was 1.87 µM and 2.56 µM. For the same molecule, the TGI [6] was 4.88 µM and 7.92 µM.
`CN[C@@H](C)C(=O)N[C@H](C(=O)N1CCC[C@H]1C(=O)Nc1snnc1-c1ccccc1)C1CCCCC1` was tested, and the GI50 [1] was 24.6 µM, the TGI [1] was 55.8 µM and the GI50 [7] was 25.6 µM. The TGI [7] was 60.8 µM, the GI50 [8] was 32.1 µM and the TGI [8] was > 100 µM. The GI50 [9] was 57.5 µM, the TGI [9] was > 100 µM and the GI50 [4] was 41.6 µM. For the same molecule, the TGI [4] was > 100 µM, the GI50 [5] was 36.3 µM and the TGI [5] was > 100 µM. The GI50 [10] was 59.1 µM, the TGI [10] was > 100 µM and the GI50 [6] was 24.4 µM. For the same molecule, the TGI [6] was 57.7 µM.
`C=C1CCC2C3(C)COC(c4ccc(N(C)C)cc4)OC3CCC2(C)C1C/C=C1/C(=O)OCC1O` (centres undefined) showed a GI50 [1] of 4.1 µM, a TGI [1] of 16.7 µM and a GI50 [7] of 7.69 µM. For the same molecule, the TGI [7] was 19.8 µM, the GI50 [8] was 2.88 µM and the TGI [8] was 10.5 µM. For the same molecule, the GI50 [9] was 6.91 µM, the TGI [9] was 26.3 µM and the GI50 [4] was 1.62 µM. For the same molecule, the TGI [4] was 3.05 µM, the GI50 [5] was 2.1 µM and the TGI [5] was 5.21 µM. It also gave a GI50 [10] of 2.32 µM, a TGI [10] of 13 µM and a GI50 [6] of 1.22 µM. For the same molecule, the TGI [6] was 3.37 µM.
`CC(=O)CC(=O)OC1CC(C)CCC1C(C)C` (centres undefined) was tested, and the TGI [1] was > 100 µM, the TGI [7] was > 100 µM and the TGI [3] was > 100 µM. For the same molecule, the TGI [4] was 80.1 µM, the TGI [5] was > 100 µM and the TGI [6] was > 100 µM.
`CCN(CC)c1c(C(=O)/C=C/c2ccc(OC)cc2)c(-c2ccccc2)nn(C)c1=O` gave a TGI [2] of 33.1 µM, a TGI [3] of 71.3 µM and a TGI [5] of 32.7 µM. The TGI [6] was 49.9 µM.
`O=C(O)CNC(=O)c1ccc(-c2ccccc2)cc1` was tested, and the TGI [1] was > 100 µM, the TGI [7] was > 100 µM and the TGI [8] was > 100 µM. The TGI [9] was > 100 µM, the TGI [4] was > 100 µM and the TGI [5] was > 100 µM. The TGI [10] was > 100 µM and the TGI [6] was > 100 µM.
For `C(#Cc1ccccc1C#Cc1cccs1)c1cccs1`, the GI50 [1] was 32.9 µM, the TGI [1] was > 100 µM and the GI50 [7] was 24 µM. The TGI [7] was 65.2 µM, the GI50 [8] was 37.2 µM and the TGI [8] was > 100 µM. For the same molecule, the GI50 [9] was 30.2 µM, the TGI [9] was > 100 µM and the GI50 [4] was 21.8 µM. The TGI [4] was > 100 µM, the GI50 [5] was 66.8 µM and the TGI [5] was > 100 µM. The GI50 [10] was 43.3 µM, the TGI [10] was > 100 µM and the GI50 [6] was 30.2 µM. The TGI [6] was > 100 µM.
For `Cc1ccc2nc(NC(=O)C(=O)C(C#N)c3nc4ccccc4s3)sc2c1` (centres undefined), the TGI [1] was > 100 µM, the TGI [2] was > 100 µM and the TGI [7] was > 100 µM. For the same molecule, the TGI [4] was > 100 µM, the TGI [5] was > 100 µM and the TGI [6] was 76.6 µM.
`Cc1c(C(N)=O)sc2c1C(=O)N(Cc1ccccc1)C1=NN=C(c3ccc(Cl)cc3)CN12` gave a GI50 [1] of 2.38 µM, a TGI [1] of 6.75 µM and a GI50 [7] of 3.97 µM. It also gave a TGI [7] of 17 µM, a GI50 [8] of 4.9 µM and a TGI [8] of 26.1 µM. For the same molecule, the GI50 [9] was 3.82 µM, the TGI [9] was 16.4 µM and the GI50 [4] was 3.44 µM. For the same molecule, the TGI [4] was 14.5 µM, the GI50 [5] was 2.39 µM and the TGI [5] was 13.2 µM. It also gave a GI50 [10] of 3.59 µM, a TGI [10] of 14.9 µM and a GI50 [6] of 2.97 µM. The TGI [6] was > 100 µM.
`COc1cc(C(=O)O[C@H](C(=O)NCCCCCNC(=O)[C@@H](OC(=O)c2cc(OC)cc3c(C)cccc23)[C@]2(C)CO2)[C@]2(C)CO2)c2cccc(C)c2c1` showed a TGI [1] of 0.305 µM, a GI50 [7] of 0.254 µM and a TGI [7] of 3.55 µM. For the same molecule, the GI50 [8] was 0.016 µM, the TGI [8] was 0.0913 µM and the GI50 [9] was 1 µM. For the same molecule, the GI50 [4] was 0.884 µM, the TGI [4] was 3.68 µM and the GI50 [5] was < 0.01 µM. The TGI [5] was 0.3 µM, the GI50 [10] was < 0.0123 µM and the GI50 [6] was 0.437 µM. The TGI [6] was > 36.3 µM.
For `N#CC(NC12CC3CC(CC(C3)C1)C2)c1ccc2c(c1)OCO2` (centres undefined), the TGI [1] was > 100 µM, the TGI [7] was > 100 µM and the TGI [8] was > 100 µM. For the same molecule, the TGI [9] was > 100 µM, the TGI [4] was > 100 µM and the TGI [5] was > 100 µM. The TGI [10] was > 100 µM and the TGI [6] was > 100 µM.
For `Nc1c(C(=O)c2cccc(-c3ccncc3)c2)cnn1-c1ccc(F)cc1F`, the GI50 [1] was 6.58 µM, the TGI [1] was > 25 µM and the GI50 [7] was > 21.3 µM. For the same molecule, the TGI [7] was > 25 µM, the GI50 [8] was 0.684 µM and the TGI [8] was 3.56 µM. For the same molecule, the GI50 [9] was 3.67 µM, the TGI [9] was > 25 µM and the GI50 [4] was 6.25 µM. The TGI [4] was > 25 µM, the GI50 [5] was 12.6 µM and the TGI [5] was > 25 µM. For the same molecule, the GI50 [10] was 3.08 µM, the TGI [10] was > 25 µM and the GI50 [6] was 2.57 µM. The TGI [6] was > 25 µM.
`COc1c(C)c2c(c(O)c1C/C=C(\C)CCC(=O)O)C(=O)OC2` was tested, and the GI50 [1] was 0.343 µM, the TGI [1] was > 100 µM and the GI50 [7] was 0.404 µM. The TGI [7] was > 100 µM, the GI50 [8] was 0.32 µM and the TGI [8] was > 100 µM. For the same molecule, the GI50 [9] was 0.663 µM, the TGI [9] was > 100 µM and the TGI [3] was > 100 µM. The GI50 [4] was 0.145 µM, the TGI [4] was > 100 µM and the GI50 [5] was 0.0905 µM. For the same molecule, the TGI [5] was > 100 µM, the GI50 [10] was 0.18 µM and the TGI [10] was > 100 µM. For the same molecule, the GI50 [6] was 0.123 µM and the TGI [6] was > 100 µM.
In the case of `COc1cc(/C=C/C(=O)c2cccc(Nc3nc(Nc4ccccc4)nc(Nc4ccccc4)n3)c2)cc(OC)c1OC`, the GI50 [1] was 24.1 µM, the TGI [1] was > 100 µM and the GI50 [7] was 5.5 µM. For the same molecule, the TGI [7] was 53.1 µM, the GI50 [8] was 7.67 µM and the TGI [8] was > 73.4 µM. The GI50 [9] was 1.98 µM, the TGI [9] was > 59 µM and the GI50 [4] was 2.68 µM. For the same molecule, the TGI [4] was > 66.6 µM, the GI50 [5] was 11.4 µM and the TGI [5] was > 100 µM. The GI50 [10] was 0.588 µM, the TGI [10] was > 54.1 µM and the GI50 [6] was 1.37 µM. For the same molecule, the TGI [6] was > 38.8 µM.
`C=C(C)C(=O)Nc1ccc(NC(C)C)cc1` was tested, and the GI50 [1] was > 100 µM, the TGI [1] was > 100 µM and the GI50 [7] was > 100 µM. The TGI [7] was > 100 µM, the GI50 [8] was > 100 µM and the TGI [8] was > 100 µM. The GI50 [9] was > 100 µM, the TGI [9] was > 100 µM and the GI50 [4] was > 100 µM. The TGI [4] was > 100 µM, the GI50 [5] was > 100 µM and the TGI [5] was > 100 µM. For the same molecule, the GI50 [10] was > 100 µM, the TGI [10] was > 100 µM and the GI50 [6] was > 100 µM. The TGI [6] was > 100 µM.
